From US10196403B2, “Compounds and compositions and uses thereof” (Sunovion Pharmaceuticals Inc., priority 2016, dated 2019)

System: mice
Test: Neuropharmacological Assay (SmartCube)
Format: in vivo
Details: for minimal effective dose: Mus musculus, MED = dose having 50% or more total activity in SmartCube, read-out: POTENCY (minimal effective dose, MED); for AD: ADHD (SmartCube probability) / AG: analgesic (SmartCube probability) / AX: anxiolytic (SmartCube probability) / CE: cognitive enhancer (SmartCube probability) / DP: anti-depressant (SmartCube probability) / MS: mood stabilizer (SmartCube probability) / PS: anti-psychotic (SmartCube probability) / SD: sedative hypnotic (SmartCube probability) / UN: uncharacterized CNS activity (SmartCube probability): mice, i.p. 15 min before test, most efficacious dose(s) of 3 doses
How it was run: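 Compounds in NMP/PEG/propylene glycol given i.p. 15 min before automated video-based behavioral testing, at 3 doses; behavioral signature compared with a reference-compound database to give probability per drug class, reported at most efficacious dose. MED = dose (mpk) giving ≥50% total activity; doses typically 0.3–30 mpk.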

| SMILES | minimal effective dose [mg/kg] | AD: ADHD (SmartCube probability) | AG: analgesic (SmartCube probability) | AX: anxiolytic (SmartCube probability) | CE: cognitive enhancer (SmartCube probability) | DP: anti-depressant (SmartCube probability) | MS: mood stabilizer (SmartCube probability) | PS: anti-psychotic (SmartCube probability) | SD: sedative hypnotic (SmartCube probability) | UN: uncharacterized CNS activity (SmartCube probability) |
| --- | --- | --- | --- | --- | --- | --- | --- | --- | --- | --- |
| CNC[C@@H]1OCc2c(Cl)cccc21 [Example 93, (R)-1-(4-chloro-1,3-dihydroisobenzofuran-1-yl)-N-methyl-methanamine] | < 3 | +++ (25%≤ +++ <50%) | ++ (5%≤ ++ <25%) | +++ (25%≤ +++ <50%) | ++ (5%≤ ++ <25%) | ++ (5%≤ ++ <25%) | + (LOQ≤ + <5%) | + (LOQ≤ + <5%) | ++ (5%≤ ++ <25%) | ++++ (50%≤ ++++) |
| NC[C@@H]1OCCc2c1ccc1c2OCO1 [Example 12, (R)-(8,9-dihydro-6H-[1,3]dioxolo[4,5-f]isochromen-6-yl)methanamine] | 3 to 10 | + (LOQ≤ + <5%) | ++ (5%≤ ++ <25%) | + (LOQ≤ + <5%) | + (LOQ≤ + <5%) | ++++ (50%≤ ++++) | + (LOQ≤ + <5%) | ++ (5%≤ ++ <25%) | ++ (5%≤ ++ <25%) | ++ (5%≤ ++ <25%) |
| Cc1cccc2c1CCO[C@H]2CN [Example 73, (R)-(5-methylisochroman-1-yl)methanamine] | < 3 | + (LOQ≤ + <5%) | + (LOQ≤ + <5%) | ++ (5%≤ ++ <25%) | ++ (5%≤ ++ <25%) | +++ (25%≤ +++ <50%) | + (LOQ≤ + <5%) | + (LOQ≤ + <5%) | ++ (5%≤ ++ <25%) | ++++ (50%≤ ++++) |
| CNC[C@@H]1OCCc2ccc3c(c21)CCO3 [Example 107, (R)-N-methyl-1-(3,4,8,9-tetrahydro-1H-furo[2,3-h]isochromen-1-yl)methanamine] | 3 to 10 | + (LOQ≤ + <5%) | + (LOQ≤ + <5%) | ++ (5%≤ ++ <25%) | + (LOQ≤ + <5%) | ++ (5%≤ ++ <25%) | + (LOQ≤ + <5%) | ++ (5%≤ ++ <25%) | ++ (5%≤ ++ <25%) | +++ (25%≤ +++ <50%) |
| CNC[C@@H]1OCCc2c(C#N)cccc21 [Example 47, (R)-1-((methylamino)methyl)isochromane-5-carbonitrile] | 3 to 10 | + (LOQ≤ + <5%) | + (LOQ≤ + <5%) | ++ (5%≤ ++ <25%) | + (LOQ≤ + <5%) | ++++ (50%≤ ++++) | + (LOQ≤ + <5%) | ++ (5%≤ ++ <25%) | ++ (5%≤ ++ <25%) | ++ (5%≤ ++ <25%) |
